These results are taken from patent publication US8685929B2, “Detecting CYP24 expression level as a marker for predisposition to cancer” (The Regents of the University of California, priority 1999, dated 2014).

Structures are written as SMILES.

Experiment [1] concerns CYP24 gene expression in MCF7 breast cancer cells. The experiment can be described thus: RT-PCR of CYP24 gene expression in MCF7 breast cancer cells with induction by 1,25-dihydroxyvitamin D3. Type of experiment: cell-based, human. The note with it: MCF7 cells incubated with 10^-8M 1,25-dihydroxyvitamin D3 vs vehicle control (ethanol); FIG. 3A. Here is the method:
(§1) FIG. 3 illustrates expression of CYP24, VDR and ZNF217 genes in human breast cancer cell lines and tumors with and without induction by 1,25-dihydroxyvitamin D3 evaluated by RT-PCR. (a) Time course of induction of CYP24 gene expression in MCF7 breast cancer cells incubated with 10^−8M 1,25-dihydroxyvitamin D3 and vehicle control (ethanol, EtOH). (b) Gene expression in two breast cancer tumors, S21 and S59. (c) Gene expression in the BT474 cell line. Cells were incubated with 10^−8M 1,25-dihydroxyvitamin D3, as described in (a).
(§2) Previously, CYP24 had been discounted as a candidate oncogene because it was not found to be transcribed in the breast cancer cell line, BT474 (Collins et al. (1998) Proc. Natl. Acad. Sci. USA 95: 8703-8708). However, re-evaluation of expression of CYP24 in cell lines and tumors was warranted because of its position at the peak of the copy number profile and because of the existing knowledge of its function. Therefore we examined expression levels of CYP24 and the vitamin D receptor (VDR), which controls CYP24 expression by RT-PCR using the primers listed in Table 1. […] Furthermore, expression of CYP24 and VDR was detected in two breast tumors S21 and S59 (FIG. 3B). […] Only low level expression of VDR was found in this cell line, most likely accounting for the failure to detect expression of CYP24 in BT474 without addition of 1,25-dihydroxyvitamin-D3. […]

In experiment [2] the test system is CYP24 gene expression in BT474 cell line. Briefly: RT-PCR of CYP24 gene expression in the BT474 cell line with induction by 1,25-dihydroxyvitamin D3. The experiment is classed as cell-based, human. Conditions: BT474 cells, 10^-8M 1,25-dihydroxyvitamin D3 added to the culture medium; FIG. 3C. Here is the method: as §1, §2

Consider `C=C1/C(=C\C=C2/CCC[C@]3(C)[C@@H]([C@H](C)CCCC(C)(C)O)CC[C@@H]23)C[C@@H](O)C[C@@H]1O` [1,25-dihydroxyvitamin-D3], for which the entries for the “expression of CYP24 (RT-PCR)” value in experiment [1] and in experiment [2] were “higher levels of expression of CYP24 were induced” and “CYP24 expression was not detected without addition of 1,25-dihydroxyvitamin-D3”, respectively.
